Data on two molecules can be found in ChEMBL document CHEMBL1150219, “New co-metabolites of the streptazolin pathway” (2001).

Active and inactive are the calls of the source. The calls are words filed in the database; no cut-off is given here. Where only a bound is given, the exact number is not on record here.

One test relates to HMO2. Put plainly: Cytotoxicity against human HMO2 cells at 50 umol/L. The test is classed as functional, cell-based.
Test [1] relates to MCF7. Briefly: Cytotoxicity against human MCF7 cells at 50 umol/L. The test is classed as functional, cell-based.
Test [2] relates to HepG2. Briefly: Cytotoxicity against human HepG2 cells at 50 umol/L. The test is classed as functional, cell-based.
A short description of test [3]: Cytotoxicity against human HMO2 cells. The test is classed as functional.
Test [4] concerns MCF7. Briefly: Cytotoxicity against human MCF7 cells. Type of test: functional.
Test [5] in a line: Cytotoxicity against human KATO III cells. Type of test: functional, KATO III cell.
In test [6] the test system is HepG2. Briefly: Cytotoxicity against human HepG2 cells. The test is classed as functional.

On to `C/C=C1/C2=CCCN3C(=O)O[C@H]([C@H]1O)[C@H]23`, for which the result in the test on HMO2, with MCF7 [1] and in the test with HepG2 [2] was inactive.

`C/C=C1/C2=CCCN3C(=O)O[C@H]([C@H]1O[C@@H]1OC[C@@H](O)[C@H](O)[C@H]1O)[C@H]23`: the GI50 came out at 150 nM in test [3], 10000 nM in the test with MCF7 [4], 700 nM in test [5] and 300 nM in the test with HepG2 [6]. The TGI in test [3] was greater than 50000 nM; with MCF7 [4] it was 30000 nM; in test [5], 1000 nM; in the test with HepG2 [6] it was 5000 nM.
